Source: US12611434B2, “Bifidobacterium brevis and its application in preventing or alleviating psoriasis thereof” (Jiangnan University, priority 2020, dated 2026)

Key:
Assay type in all cases: in vivo, BALB/c female mice
IL-23 = IL-23 content in skin of psoriasis mice by ELISA kit; settings: compared with model group; intragastric daily (bacteria 0.2 mL of 1×10^9 CFU/mL; methotrexate 1 mg/kg/day); back skin, 1st day of week 4
Source text: (§1) 6 to 8-week-old SPF-class BALB/c female mice were divided into 4 groups: a normal group, a model group, a positive reference group (hereinafter referred to as PRG) and experimental groups, where the experimental groups included a CCFM1078 group intragastrically administrated with the B. breve CCFM1078 and a B. breve 1 group intragastrically administrated with the B. breve 1, with 6 animals in each group. All mice were raised in the Experimental Animal Center of Jiangnan University and fed with ordinary feed, at a constant temperature of 21 to 26° C. and at the humidity of 40 to 70%, with noise of less than or equal to 60 dB, and animal illumination of 15 to 20 LX (all animal experiment procedures were reviewed and approved by the Animal welfare and Ethics Management Committee of Jiangnan University).
The experimental cycle was a total of 3 weeks, and modeling was performed in week 3. The back of the mice was depilated the day before modeling, in an area of about 2.5 cm×2.5 cm. […] The mice were sacrificed on the 1st day of week 4, a part of the skin of the back depilated region of mice was taken and stored at −80° C., and the content of IL-23 in the skin was detected by an ELISA kit.

IL-22 = IL-22 content in skin of psoriasis mice by ELISA kit; settings: compared with model group; intragastric daily (bacteria 0.2 mL of 1×10^9 CFU/mL; methotrexate 1 mg/kg/day); back skin, 1st day of week 4
Source text: as §1
The experimental cycle was a total of 3 weeks, and modeling was performed in week 3. The back of the mice was depilated the day before modeling, in an area of about 2.5 cm×2.5 cm. […] The mice were sacrificed on the 1st day of week 4, a part of the skin of the back depilated region of mice was taken and stored at −80° C., and the content of IL-22 in the skin was detected by an ELISA kit.

IL-17 = IL-17 content in skin of psoriasis mice by ELISA kit; settings: compared with model group; intragastric daily (bacteria 0.2 mL of 1×10^9 CFU/mL); back skin, 1st day of week 4
Source text: as §1
The experimental cycle was a total of 3 weeks, and modeling was performed in week 3. The back of the mice was depilated the day before modeling, in an area of about 2.5 cm×2.5 cm. […] The mice were sacrificed on the 1st day of week 4, a part of the skin of the back depilated region of mice was taken and stored at −80° C., and the content of IL-17 in the skin was detected by an ELISA kit.

Compound: CN(Cc1cnc2nc(N)nc(N)c2n1)c1ccc(C(=O)N[C@@H](CCC(=O)O)C(=O)O)cc1 [methotrexate]
- decrease of IL-23 content in the skin (IL-23): 43.8%
- decrease of IL-22 content in the skin (IL-22): 41.8%
- decrease of IL-17 content in the skin (IL-17): 24.6%
